Results from US20080213415A1, “Treatment of Glaucoma and Diabetic Retinopathy with Morinda Citrifolia Enhanced Formulations” (priority 2007, published 2008).
Like-named read-outs stand apart in the source and are kept apart here.

Experiments:
[1] = biological target: T1, Fatty acid amide hydrolase (FAAH) (Rattus norvegicus, UniProt P97612); test: Fatty acid amide hydrolase (FAAH) inhibition, quantitation of labelled ethanolamine; assay type: biochemical, Wistar Rat; conditions: reference compound, concurrent
T1 sequence (P97612 1-579): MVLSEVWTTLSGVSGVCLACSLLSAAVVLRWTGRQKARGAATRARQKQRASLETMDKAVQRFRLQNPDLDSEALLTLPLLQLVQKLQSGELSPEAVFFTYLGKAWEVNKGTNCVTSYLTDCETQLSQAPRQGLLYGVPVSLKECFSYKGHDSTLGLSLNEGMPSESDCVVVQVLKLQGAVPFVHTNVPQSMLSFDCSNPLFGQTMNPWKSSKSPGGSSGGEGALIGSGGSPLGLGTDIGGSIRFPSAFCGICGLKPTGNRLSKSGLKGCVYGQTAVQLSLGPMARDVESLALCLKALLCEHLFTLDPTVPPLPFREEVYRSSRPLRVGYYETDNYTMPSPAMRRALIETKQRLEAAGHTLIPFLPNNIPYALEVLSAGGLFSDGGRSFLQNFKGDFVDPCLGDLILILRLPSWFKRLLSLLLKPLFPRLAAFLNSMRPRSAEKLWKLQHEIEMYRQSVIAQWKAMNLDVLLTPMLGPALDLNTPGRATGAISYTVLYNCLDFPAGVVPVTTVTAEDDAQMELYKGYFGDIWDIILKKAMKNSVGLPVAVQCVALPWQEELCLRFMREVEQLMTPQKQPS

[2] = biological target: T1, Fatty acid amide hydrolase (FAAH); conditions: reference compound, historical value; cited from earlier work

- IC50 ([1]; batch 144029): 23.5 nM
- IC50 ([1]; batch 144988): 35.5 nM
Compound: CCCCCCCC/C=C\CCCCCCCC(=O)C(F)(F)F [Oleyl Trifluormethyl Ketone]
- IC50 [2]: 29 nM
